Consider 6 compounds from PMC4082664 (Alcoholism, clinical and experimental research, 2011).

Read-outs that look alike come from different tables or passages of the source.

Series [1] deals with T1, CYP3A4 (Homo sapiens, UniProt P08684). Particulars: ref Kumar et al., 2010; cited from earlier work.
In series [2] the target is T1, CYP3A4. As to the kind of experiment: Spectral binding. Particulars: for Type of spectral binding with CYP3A4: no ethanol; for δAmax (maximum spectral change): 0.5 µM CYP3A4, 25°C, pH 7.4; for Type of spectral binding with CYP3A4 at low concentrations: low concentrations (<0.5 µM), data not shown.

T1 sequence (P08684 whole entry): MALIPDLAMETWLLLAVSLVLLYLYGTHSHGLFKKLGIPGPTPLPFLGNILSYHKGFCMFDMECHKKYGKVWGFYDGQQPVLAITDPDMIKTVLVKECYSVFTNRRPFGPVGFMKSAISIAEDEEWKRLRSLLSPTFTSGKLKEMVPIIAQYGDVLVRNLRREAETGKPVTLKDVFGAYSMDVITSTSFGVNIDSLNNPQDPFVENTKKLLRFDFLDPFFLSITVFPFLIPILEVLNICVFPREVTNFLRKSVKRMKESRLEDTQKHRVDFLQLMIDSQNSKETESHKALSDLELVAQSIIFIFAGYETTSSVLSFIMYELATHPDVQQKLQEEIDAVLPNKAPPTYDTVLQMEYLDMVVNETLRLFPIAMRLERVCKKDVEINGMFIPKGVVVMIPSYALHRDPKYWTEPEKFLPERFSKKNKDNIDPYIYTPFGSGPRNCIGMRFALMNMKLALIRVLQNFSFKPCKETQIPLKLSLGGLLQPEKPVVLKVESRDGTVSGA

In the case of `CCO` [ethanol], at CYP3A4 [1], the “Type of spectral binding with CYP3A4” value is “type I”.

Consider `CC(C)CN(C[C@@H](O)[C@H](Cc1ccccc1)NC(=O)O[C@H]1CCOC1)S(=O)(=O)c1ccc(N)cc1` [Amprenavir], for which the “Type of spectral binding with CYP3A4” value on CYP3A4 [2] is listed as “did not show detectable spectral binding”.

`CCC[C@@]1(CCc2ccccc2)CC(O)=C([C@H](CC)c2cccc(NS(=O)(=O)c3ccc(C(F)(F)F)cn3)c2)C(=O)O1` [Tipranavir]: the figures for the “δAmax (maximum spectral change)” value on CYP3A4 [2] (20 mM ethanol) and on CYP3A4 [2] (No ethanol) were 0.012 ± 0.0003 and 0.015 ± 0.0003, respectively. On CYP3A4 [2], the “Type of spectral binding with CYP3A4 at low concentrations” value was “weak type II”. Further, the “Type of spectral binding with CYP3A4” value at CYP3A4 [2] is reported as “type I”.

Turning to `COC(=O)N[C@H](C(=O)N[C@@H](Cc1ccccc1)[C@@H](O)CN(Cc1ccc(-c2ccccn2)cc1)NC(=O)[C@@H](NC(=O)OC)C(C)(C)C)C(C)(C)C` [Atazanavir], the “δAmax (maximum spectral change)” value on CYP3A4 [2] (20 mM ethanol) is 0.012 ± 0.0002; on CYP3A4 [2] (No ethanol), 0.013 ± 0.0003. The “Type of spectral binding with CYP3A4 at low concentrations” value on CYP3A4 [2] was “weak type II”. Also, the “Type of spectral binding with CYP3A4” value on CYP3A4 [2] is “type I”.

Turning to `Cc1c(O)cccc1C(=O)N[C@@H](CSc1ccccc1)[C@H](O)CN1C[C@H]2CCCC[C@H]2C[C@H]1C(=O)NC(C)(C)C` [nelfinavir], on CYP3A4 [1], the “Type of spectral binding with CYP3A4” value is on record as “high-affinity type I”.

Regarding `CC(C)(C)NC(=O)[C@@H]1C[C@@H]2CCCC[C@@H]2CN1C[C@@H](O)[C@H](Cc1ccccc1)NC(=O)[C@H](CC(N)=O)NC(=O)c1ccc2ccccc2n1` [Saquinavir], the “δAmax (maximum spectral change)” value at CYP3A4 [2] (20 mM ethanol) came to 0.006 ± 0.0003; at CYP3A4 [2] (No ethanol), 0.011 ± 0.0001. Moreover, on CYP3A4 [2], the “Type of spectral binding with CYP3A4” value is “type I”.
